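Five concentrations, 48 hours, 96-well plates. GI50: concentration for 50% inhibition of growth. TGI: total growth inhibition.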

This passage reports GI50 and TGI results from PubChem BioAssay (NCI).

Holding throughout (experiment): NCI tumour cell line growth inhibition, 48 h
The test system of experiment [1] is SK-OV-3 ovarian.
The subject of experiment [2] is MALME-3M melanoma.
For experiment [3], the system named is NCI-H522 lung.
In experiment [4] the test system is UO-31 renal.
Experiment [5] deals with HOP-62 NSCLC.
Experiment [6] concerns K-562 leukemia.
The subject of experiment [7] is MOLT-4 leukemia.
Experiment [8] concerns HT29 colon.
The test system of experiment [9] is A549 NSCLC.
For experiment [10], the system named is HOP-92 NSCLC.

`COc1cc(C(=O)Nc2cc3c(cc2Oc2cc(C)cc(C)c2)C(=O)N(C)[C@@H](CC(=O)N(C)O)C(=O)N3)c(Br)c(OC)c1OC`: the GI50 in experiment [1] is less than 0.00333 µM; in [2] it was less than 0.00333 µM; in experiment [3] it was less than 0.00333 µM; in experiment [4], 0.0255 µM; in experiment [5], less than 0.00333 µM; in experiment [6], less than 0.00333 µM. The GI50 in [7], in [8], in experiment [9] and in experiment [10] was less than 0.00333 µM in each case. Also, the TGI in experiment [1] was 0.00955 µM; in [2], less than 0.00333 µM; in experiment [3], less than 0.00333 µM; in [4] it was 0.413 µM; in [5] it was 0.00372 µM; in experiment [6] it was 0.00872 µM. The TGI is less than 0.00333 µM in experiment [7], less than 0.00333 µM in experiment [8], 0.00742 µM in experiment [9] and less than 0.00333 µM in experiment [10].

As for `COC(=O)C(CC(=O)Nc1ccc(C)cc1)C(=O)C(=O)Nc1ccccc1C(C)C` (stereo not drawn), the TGI in [1], in experiment [2], in experiment [3], in experiment [4], in experiment [5] and in [6] was greater than 100 µM each time. For the same compound, the TGI in experiment [7], in experiment [8], in experiment [9] and in experiment [10] was greater than 100 µM throughout.

As for `CCOP(=O)(OCC)OC(C#N)c1ccc(-c2ccccc2)cc1` (stereo not drawn), the TGI is 78.5 µM in experiment [1]; 41 µM in experiment [2]; 28.5 µM in experiment [3]; greater than 100 µM in experiment [4]; greater than 100 µM in experiment [5]; 40 µM in [6]. The TGI in experiment [7] was 29.9 µM; in experiment [8], 34.3 µM; in experiment [9], 34.9 µM; in experiment [10], 52.6 µM.

On to `Cc1cc(Cl)ccc1Nc1nc(C(F)(F)F)ccc1C(=O)N/N=C/c1ccc([N+](=O)[O-])cc1`, for which the GI50 in experiment [1] is 2.16 µM; in experiment [2], 1.68 µM; in [3], 1.55 µM; in experiment [4], 1.48 µM; in [5], 3.35 µM; in experiment [6], 1.43 µM. The figures for the GI50 in experiment [8], in experiment [9] and in [10] were 3.11 µM, 1.07 µM and 1.34 µM, respectively. Besides, the TGI was 7.27 µM in experiment [1]; 7.09 µM in experiment [2]; greater than 20.5 µM in experiment [3]; 6.93 µM in experiment [4]; greater than 35.7 µM in experiment [5]; greater than 24.8 µM in [6]. The TGI in [7] is greater than 20 µM; in [8] it was greater than 37.5 µM; in experiment [9], 5.54 µM; in experiment [10], 5.47 µM.

As to `CC(=O)NC(CCCCNC(=O)NCCCl)C(=O)NCc1ccccc1` (stereo not drawn), the TGI in experiment [2], in experiment [3], in experiment [4], in experiment [5], in experiment [6] and in [7] was greater than 100 µM in each case. Further, the TGI in [8], in [9] and in [10] was greater than 100 µM in each case.

With `OC1(c2ccccc2)OC(C#Cc2ccccc2)(c2ccccc2)c2ccccc21` (stereo not drawn), the TGI in experiment [1] is 5.04 µM; in experiment [2], 22.7 µM; in [3], 20.3 µM; in experiment [4], 4.05 µM; in experiment [5], 28.8 µM; in experiment [6], greater than 100 µM. In addition, the TGI in [7] was 8.01 µM; in experiment [8] it was 4.38 µM; in experiment [9] it was 14.8 µM; in [10] it was 13.2 µM.

As to `COC(=O)[C@]12CCC(C)[C@H](C)[C@H]1C1=CCC3[C@@]4(C)CC[C@H](OC(C)=O)C(C)(C)C4CC[C@@]3(C)C1(C)C(O)C2` (stereo partly drawn), the TGI in experiment [1], in experiment [2], in [3], in [4], in experiment [5] and in experiment [6] was greater than 100 µM each time. The TGI in [7], in [8], in experiment [9] and in [10] was greater than 100 µM in each case.

`Cc1sc2nc3c4ccccc4c(NCCCN(C)C)nn3c(=O)c2c1C`: the GI50 was 13.4 µM in [1]; 1.97 µM in experiment [2]; 12.4 µM in experiment [3]; 3.13 µM in experiment [4]; 12.3 µM in experiment [5]; 1.93 µM in experiment [6]. Also, the GI50 in experiment [7] was 0.782 µM; in experiment [8], 1.52 µM; in experiment [9], 2.52 µM; in [10] it was 5.57 µM. Further, the TGI turned out to be 26.3 µM in experiment [1]; 4.96 µM in experiment [2]; 28.8 µM in experiment [3]; 16.7 µM in experiment [4]; 25.3 µM in experiment [5]; 3.9 µM in experiment [6]. The TGI in experiment [7] stood at 3.38 µM; in [8] it was 3.36 µM; in experiment [9] it was 20.4 µM; in experiment [10], 20 µM.

Take `CCOc1cc(/C=N\Nc2nnc(C)n2N)c(C)cc1N(CCCl)CCCl`: the GI50 is 2.28 µM in [1]; 0.377 µM in experiment [2]; 0.461 µM in experiment [3]; 1.3 µM in [4]; 0.631 µM in experiment [5]; 0.646 µM in [6]. Moreover, the GI50 is 0.876 µM in experiment [7], 0.648 µM in [8], 0.638 µM in experiment [9] and 0.163 µM in [10]. Moreover, the TGI in [1] was 8.24 µM; in experiment [2] it was 6.77 µM; in [3], 5.8 µM; in experiment [4], 11.8 µM; in experiment [5], 22.5 µM; in experiment [6] it was greater than 100 µM. Moreover, the TGI in experiment [7] is 8.58 µM; in experiment [8] it was 7.17 µM; in [9], greater than 20.6 µM; in [10] it was 1.12 µM.

Consider `C/C(=N\N(c1ccccc1)c1ccccc1)c1c(O)cc(C)oc1=O`, for which the TGI in [1], in experiment [2], in experiment [3], in experiment [4], in experiment [5] and in experiment [6] was greater than 100 µM in each case. The TGI in [7], in experiment [8], in experiment [9] and in experiment [10] was greater than 100 µM each time.
